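Grown in 96-well plates, cells were treated for 48 hours with each compound at five concentrations. Insufficient inhibition: endpoint recorded as highest concentration tested. GI50 marks 50% less growth.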 Activity calls are given as the source filed them. Rule as the data show it: active = GI50 up to about 1.1 µM and inactive = higher.
Experiments:
Assay in all cases: NCI anticancer screen, dose series, 48 h
SF-268 = tested on: SF-268
K562 = tested on: K562
SF-295 = tested on: SF-295
M19-MEL = tested on: M19-MEL
HL-60 = tested on: HL-60
NCI-H522 = tested on: NCI-H522
LOX IMVI = tested on: LOX IMVI
TK-10 = tested on: TK-10
SW-620 = tested on: SW-620
ACHN = tested on: ACHN
SK-MEL-28 = tested on: SK-MEL-28
M14 = tested on: M14
LXFL 529 = tested on: LXFL 529
CAKI-1 = tested on: CAKI-1
OVCAR-4 = tested on: OVCAR-4
MDA-MB-231 = tested on: MDA-MB-231
MDA-N = tested on: MDA-N
MDA-MB-435 = tested on: MDA-MB-435
DU-145 = tested on: DU-145
Hs-578T = tested on: Hs-578T

Measured: GI50

COc1ccc2c(c1)C(=O)c1ccc(OC)cc1C2=S
inactive: SF-268 81.5 µM | K562 > 100 µM | SF-295 > 100 µM | M19-MEL > 100 µM | HL-60 40.1 µM | NCI-H522 > 100 µM | LOX IMVI > 100 µM | TK-10 > 100 µM | SW-620 > 100 µM | ACHN > 100 µM | SK-MEL-28 > 100 µM | M14 > 100 µM

COc1ccc(CC2c3c(cc(OC)c(OC)c3OC)CCN2C)cc1OC (stereo unspecified)
inactive: SF-268 > 100 µM | K562 > 100 µM | SF-295 63.7 µM | NCI-H522 > 100 µM | LXFL 529 > 100 µM | CAKI-1 > 100 µM | TK-10 > 100 µM | OVCAR-4 78.7 µM | SW-620 > 100 µM | ACHN > 100 µM | SK-MEL-28 > 100 µM | M14 > 100 µM

CN1C/C(=C\C=C\c2ccccc2)C(=O)/C(=C/C=C/c2ccccc2)C1
inactive: SF-268 > 100 µM | K562 > 100 µM | SF-295 > 100 µM | M19-MEL > 100 µM | NCI-H522 54 µM | LXFL 529 78.7 µM | CAKI-1 > 100 µM | LOX IMVI > 100 µM | TK-10 > 100 µM | OVCAR-4 > 100 µM | SW-620 > 100 µM | ACHN > 100 µM | SK-MEL-28 > 100 µM | M14 > 100 µM

O=C(O)c1ccccc1Cc1ccco1
inactive: SF-268 > 100 µM | K562 > 100 µM | SF-295 > 100 µM | NCI-H522 > 100 µM | LXFL 529 > 100 µM | CAKI-1 > 100 µM | TK-10 > 100 µM | OVCAR-4 > 100 µM | SW-620 > 100 µM | ACHN > 100 µM | M14 > 100 µM

CCc1cccc(C)c1NS(=O)(=O)c1ccccc1
inactive: K562 > 100 µM | SF-295 > 100 µM | M19-MEL > 100 µM | HL-60 > 100 µM | LXFL 529 > 100 µM | CAKI-1 > 100 µM | TK-10 > 100 µM | OVCAR-4 > 100 µM | SW-620 > 100 µM | ACHN > 100 µM | SK-MEL-28 > 100 µM | M14 > 100 µM

FC(F)(F)c1ccc2c(c1)nc(Cc1ccccc1)n2C[C@@H]1CCCN2CCCCC12 (stereo partly specified)
inactive: SF-268 14.8 µM | K562 18.9 µM | SF-295 15.8 µM | MDA-MB-231 14.2 µM | MDA-N 12.7 µM | HL-60 1.59 µM | NCI-H522 14 µM | CAKI-1 15.1 µM | MDA-MB-435 14.9 µM | LOX IMVI 15.1 µM | TK-10 17.1 µM | DU-145 15.5 µM | OVCAR-4 15.2 µM | SW-620 21.7 µM | ACHN 13.5 µM | SK-MEL-28 16.2 µM | Hs-578T 18.5 µM | M14 10.6 µM

CN(c1ccccc1)C1C(=O)N(c2ccccc2)C1/C=C/c1ccccc1 (stereo unspecified)
inactive: SF-268 > 100 µM | SF-295 > 100 µM | M19-MEL > 100 µM | HL-60 > 100 µM | NCI-H522 > 100 µM | LXFL 529 > 100 µM | CAKI-1 > 100 µM | TK-10 > 100 µM | SW-620 > 100 µM | ACHN > 100 µM | SK-MEL-28 > 100 µM

CC(=O)ON(C(C)=O)C1C(COC(c2ccccc2)(c2ccccc2)c2ccccc2)OC2OC3(CCCC3)OC21 (stereo unspecified)
inactive: SF-268 10.5 µM | K562 4.27 µM | SF-295 6 µM | M19-MEL 6.62 µM | HL-60 3.32 µM | NCI-H522 2.46 µM | CAKI-1 > 100 µM | LOX IMVI 8.18 µM | TK-10 > 81.7 µM | OVCAR-4 7.8 µM | SW-620 8.63 µM | ACHN 7.66 µM | SK-MEL-28 > 100 µM | M14 7.18 µM

O=C(c1ccccc1)[C@H]1Nc2ccc(Cl)cc2C2c3ccccc3CC21 (stereo partly specified)
inactive: SF-268 > 100 µM | K562 25.6 µM | SF-295 18.5 µM | M19-MEL 71.4 µM | NCI-H522 95.3 µM | LXFL 529 27.8 µM | CAKI-1 > 100 µM | LOX IMVI 50.4 µM | TK-10 57.1 µM | OVCAR-4 22.2 µM | SW-620 50.5 µM | ACHN 45.2 µM | SK-MEL-28 32.3 µM | M14 31.6 µM

COc1ccc(/N=c2\ssc(C(=S)Nc3ccc(OC)cc3)c2S)cc1
inactive: SF-268 > 100 µM | K562 37.7 µM | SF-295 > 100 µM | MDA-MB-231 > 100 µM | MDA-N > 100 µM | HL-60 36.3 µM | NCI-H522 > 100 µM | CAKI-1 > 100 µM | MDA-MB-435 > 100 µM | LOX IMVI > 100 µM | TK-10 > 100 µM | DU-145 > 100 µM | OVCAR-4 > 100 µM | SW-620 > 100 µM | ACHN > 100 µM | SK-MEL-28 6.68 µM | Hs-578T > 100 µM | M14 71 µM

N#Cc1ccc(/C=N\N2C(=O)c3ccccc3C2=O)cc1
inactive: SF-268 > 100 µM | K562 > 100 µM | SF-295 > 100 µM | M19-MEL > 100 µM | HL-60 > 100 µM | LXFL 529 > 100 µM | CAKI-1 > 100 µM | LOX IMVI > 100 µM | TK-10 > 100 µM | OVCAR-4 > 100 µM | SW-620 > 100 µM | ACHN > 100 µM | SK-MEL-28 > 100 µM | M14 > 100 µM

Cc1cc(C)c(/C=N/NS(=O)(=O)c2ccccc2)c(C)c1
inactive: SF-268 > 100 µM | K562 94.4 µM | SF-295 38.5 µM | M19-MEL > 100 µM | HL-60 91.6 µM | LXFL 529 62.2 µM | CAKI-1 76.6 µM | LOX IMVI > 100 µM | TK-10 > 100 µM | OVCAR-4 > 100 µM | SW-620 > 100 µM | ACHN > 100 µM | SK-MEL-28 > 100 µM | M14 > 100 µM

CC1=NN(c2nc(N)nc(CSc3cc(Cl)c(C)cc3S(N)(=O)=O)n2)C(C)(C)C1
inactive: SF-268 > 10 µM | K562 > 10 µM | SF-295 > 10 µM | MDA-MB-231 > 10 µM | MDA-N > 10 µM | HL-60 > 10 µM | NCI-H522 > 10 µM | CAKI-1 > 10 µM | MDA-MB-435 > 10 µM | LOX IMVI > 10 µM | TK-10 > 10 µM | DU-145 > 10 µM | OVCAR-4 > 10 µM | SW-620 > 10 µM | ACHN > 10 µM | SK-MEL-28 > 10 µM | Hs-578T > 10 µM | M14 > 10 µM

C[C@]12C=CC(=O)C=C1CC[C@@H]1[C@@H]2CC[C@]2(C)OC(=O)CC[C@@H]12 [TESTOLACTONE]
inactive: SF-268 > 489 µM | K562 449 µM | SF-295 > 500 µM | MDA-MB-231 327 µM | MDA-N > 500 µM | HL-60 310 µM | NCI-H522 320 µM | LXFL 529 > 500 µM | CAKI-1 372 µM | MDA-MB-435 > 500 µM | LOX IMVI > 492 µM | TK-10 499 µM | DU-145 > 343 µM | OVCAR-4 486 µM | SW-620 > 486 µM | ACHN 453 µM | SK-MEL-28 498 µM | Hs-578T 319 µM | M14 > 500 µM

Source: ChEMBL document CHEMBL1201862, “PubChem BioAssay data set” (2004)
